Measurements as given in patent US12077503B2, “Substituted cyclic amides and their use as herbicides” (FMC CORPORATION, priority 2015, dated 2024).
Where two headings read alike, the source gives them in different places.

Legend:
Assay type in all cases: in vivo
[1] = test system: Kochia (Kochia scoparia); assay: Test A preemergence; conditions: Bassia scoparia, pre-emergence, 240 h; for pest or weed control at 125 g/ha: 125 g ai/ha; for pest or weed control at 500 g/ha: 500 g ai/ha
Outline: (§1)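 Visual injury scores from 0, no effect, to 100, complete control, were assigned versus untreated controls roughly 10 d after treatment in the greenhouse. Test chemicals, formulated with surfactant in a non-phytotoxic solvent, were applied to planted seeds as a preemergence soil spray or postemergence to one- to two-leaf plants 2 to 10 cm tall, in loam–sand soil.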

[2] = test system: barnyardgrass (Echinochloa crus-galli); assay: Test A preemergence; conditions: Echinochloa crus-galli, pre-emergence, 240 h; for pest or weed control at 125 g/ha: 125 g ai/ha; for pest or weed control at 500 g/ha: 500 g ai/ha
Outline: as §1

[3] = test system: pigweed (Amaranthus retroflexus); assay: Test A preemergence; conditions: Amaranthus retroflexus, pre-emergence, 240 h; for pest or weed control at 125 g/ha: 125 g ai/ha; for pest or weed control at 500 g/ha: 500 g ai/ha
[4] = test system: ragweed (common ragweed, Ambrosia elatior); assay: Test A preemergence; conditions: Ambrosia artemisiifolia, pre-emergence, 240 h; for pest or weed control at 125 g/ha: 125 g ai/ha; for pest or weed control at 500 g/ha: 500 g ai/ha
Outline: as §1

[5] = test system: ryegrass, Italian (Italian ryegrass, Lolium multiflorum); assay: Test A preemergence; conditions: Lolium multiflorum, pre-emergence, 240 h; for pest or weed control at 125 g/ha: 125 g ai/ha; for pest or weed control at 500 g/ha: 500 g ai/ha
Outline: as §1

[6] = test system: Galium (catchweed bedstraw, Galium aparine); assay: Test A postemergence; conditions: Galium, post-emergence, 240 h, 125 g ai/ha
Outline: as §1

[7] = test system: Kochia (Kochia scoparia); assay: Test A postemergence; conditions: Bassia scoparia, post-emergence, 240 h, 125 g ai/ha, postemergence, visual injury rating after approximately 10 d; read-out: Kochia plant response rating (0 to 100 scale, 0 no effect, 100 complete control)
Outline: as §1

[8] = test system: barnyardgrass (Echinochloa crus-galli); assay: Test A postemergence; conditions: Echinochloa crus-galli, post-emergence, 240 h, 125 g ai/ha
Outline: as §1

[9] = test system: corn (Zea mays); assay: Test A postemergence; conditions: Zea mays, post-emergence, 240 h, 125 g ai/ha; for Corn plant response rating (crop injury, 0 = no effect, 100 = complete kill) at 125 g/ha: Postemergence, visual injury after approximately 10 d, 0 to 100 scale where 0 is no effect and 100 is complete control
Outline: as §1

[10] = test system: giant foxtail (Setaria faberii); assay: Test A postemergence; conditions: Setaria faberi, post-emergence, 240 h, 125 g ai/ha
Outline: as §1

[11] = test system: pigweed (Amaranthus retroflexus); assay: Test A postemergence; conditions: Amaranthus retroflexus, post-emergence, 240 h, 125 g ai/ha
Outline: as §1

[12] = test system: ragweed (common ragweed, Ambrosia elatior); assay: Test A postemergence; conditions: Ambrosia artemisiifolia, post-emergence, 240 h, 125 g ai/ha
Outline: as §1

[13] = test system: ryegrass, Italian (Italian ryegrass, Lolium multiflorum); assay: Test A postemergence; conditions: Lolium multiflorum, post-emergence, 240 h, 125 g ai/ha
Outline: as §1

[14] = test system: wheat (Triticum aestivum); assay: Test A postemergence; conditions: Triticum aestivum, post-emergence, 240 h, 125 g ai/ha
Outline: as §1

[15] = test system: blackgrass (Alopecurus myosuroides); assay: Test A postemergence; conditions: Alopecurus myosuroides, post-emergence, 240 h, 125 g ai/ha, Postemergence; visual injury after approximately 10 d; 0 to 100 scale where 0 is no effect and 100 is complete control; read-out: Plant response rating, Blackgrass
Outline: as §1

[16] = Preemergence, visual injury rating after approximately 10 d, read-out: Kochia plant response rating (0 to 100 scale, 0 is no effect, 100 is complete control)
[17] = preemergence, visual injury rating about 10 d after treatment, 0 to 100 scale (0 no effect, 100 complete control), read-out: Kochia plant response rating
[18] = Preemergence, visual injury rating after approximately 10 d, read-out: Barnyardgrass plant response rating (0 to 100 scale, 0 is no effect, 100 is complete control)
[19] = preemergence, visual injury rating about 10 d after treatment, 0 to 100 scale (0 no effect, 100 complete control), read-out: Barnyardgrass plant response rating
[20] = Preemergence, visual injury rating after approximately 10 d, read-out: Pigweed plant response rating (0 to 100 scale, 0 is no effect, 100 is complete control)
[21] = preemergence, visual injury rating about 10 d after treatment, 0 to 100 scale (0 no effect, 100 complete control), read-out: Pigweed plant response rating
[22] = Preemergence, visual injury rating after approximately 10 d, read-out: Ragweed plant response rating (0 to 100 scale, 0 is no effect, 100 is complete control)
[23] = preemergence, visual injury rating about 10 d after treatment, 0 to 100 scale (0 no effect, 100 complete control), read-out: Ragweed plant response rating
[24] = Preemergence, visual injury rating after approximately 10 d, read-out: Ryegrass, Italian plant response rating (0 to 100 scale, 0 is no effect, 100 is complete control)
[25] = preemergence, visual injury rating about 10 d after treatment, 0 to 100 scale (0 no effect, 100 complete control), read-out: Ryegrass, Italian plant response rating
[26] = Postemergence, visual injury after approximately 10 d, 0 to 100 scale where 0 is no effect and 100 is complete control, read-out: Plant response rating, Galium
[27] = Postemergence, visual injury after approximately 10 d, 0 to 100 scale where 0 is no effect and 100 is complete control, read-out: Plant response rating, Barnyardgrass
[28] = Postemergence, visual injury after approximately 10 d, 0 to 100 scale where 0 is no effect and 100 is complete control, read-out: Plant response rating, Foxtail, Giant
[29] = Postemergence, visual injury after approximately 10 d, 0 to 100 scale where 0 is no effect and 100 is complete control, read-out: Plant response rating, Pigweed
[30] = Postemergence, visual injury after approximately 10 d, 0 to 100 scale where 0 is no effect and 100 is complete control, read-out: Plant response rating, Ragweed
[31] = Postemergence, visual injury after approximately 10 d, 0 to 100 scale where 0 is no effect and 100 is complete control, read-out: Plant response rating, Ryegrass, Italian
[32] = Postemergence, visual injury after approximately 10 d, 0 to 100 scale where 0 is no effect and 100 is complete control, read-out: Plant response rating, Wheat

| SMILES | pest or weed control at 125 g/ha [1, 16] | pest or weed control at 500 g/ha [1, 17] | pest or weed control at 125 g/ha [2, 18] | pest or weed control at 500 g/ha [2, 19] | pest or weed control at 125 g/ha [3, 20] | pest or weed control at 500 g/ha [3, 21] | pest or weed control at 125 g/ha [4, 22] | pest or weed control at 500 g/ha [4, 23] | pest or weed control at 125 g/ha [5, 24] | pest or weed control at 500 g/ha [5, 25] | pest or weed control at 125 g/ha [6, 26] | pest or weed control at 125 g/ha [8, 27] | pest or weed control at 125 g/ha [15] | Corn plant response rating (crop injury, 0 = no effect, 100 = complete kill) at 125 g/ha [9] | pest or weed control at 125 g/ha [10, 28] | pest or weed control at 125 g/ha [11, 29] | pest or weed control at 125 g/ha [12, 30] | pest or weed control at 125 g/ha [13, 31] | plant injury at 125 g/ha [14, 32] | also measured |
| --- | --- | --- | --- | --- | --- | --- | --- | --- | --- | --- | --- | --- | --- | --- | --- | --- | --- | --- | --- | --- |
| O=C1NC[C@H](c2cc(F)c(C(F)(F)F)c(F)c2)[C@H]1C(=O)Nc1cccc(F)c1F [Compound 838] | – | – | – | – | – | – | – | – | – | – | – | – | – | – | – | – | – | – | – | pest or weed control at 125 g/ha ([1]; preemergence, 0 to 100 scale where 0 is no effect and 100 is complete control, read-out: Kochia plant response rating): 70%; pest or weed control at 500 g/ha ([1]; Preemergence, visual injury vs untreated controls after approximately 10 d, read-out: Kochia plant response rating (0 to 100 scale where 0 is no effect and 100 is complete control)): 80%; pest or weed control at 125 g/ha ([2]; preemergence, 0 to 100 scale where 0 is no effect and 100 is complete control, read-out: Barnyardgrass plant response rating): 90%; pest or weed control at 500 g/ha ([2]; Preemergence, visual injury vs untreated controls after approximately 10 d, read-out: Barnyardgrass plant response rating (0 to 100 scale where 0 is no effect and 100 is complete control)): 90%; pest or weed control at 125 g/ha ([3]; preemergence, 0 to 100 scale where 0 is no effect and 100 is complete control, read-out: Pigweed plant response rating): 80%; pest or weed control at 500 g/ha ([3]; Preemergence, visual injury vs untreated controls after approximately 10 d, read-out: Pigweed plant response rating (0 to 100 scale where 0 is no effect and 100 is complete control)): 90%; pest or weed control at 125 g/ha ([4]; preemergence, 0 to 100 scale where 0 is no effect and 100 is complete control, read-out: Ragweed plant response rating): 40%; pest or weed control at 500 g/ha ([4]; Preemergence, visual injury vs untreated controls after approximately 10 d, read-out: Ragweed plant response rating (0 to 100 scale where 0 is no effect and 100 is complete control)): 60%; pest or weed control at 125 g/ha ([5]; preemergence, 0 to 100 scale where 0 is no effect and 100 is complete control, read-out: Ryegrass, Italian plant response rating): 20%; pest or weed control at 500 g/ha ([5]; Preemergence, visual injury vs untreated controls after approximately 10 d, read-out: Ryegrass, Italian plant response rating (0 to 100 scale where 0 is no effect and 100 is complete control)): 60%; pest or weed control at 125 g/ha ([6]; postemergence, visual injury rating after approximately 10 d, read-out: Galium plant response rating (0 to 100 scale, 0 no effect, 100 complete control)): 50%; pest or weed control at 125 g/ha [7]: 70%; pest or weed control at 125 g/ha ([8]; postemergence, visual injury rating after approximately 10 d, read-out: Barnyardgrass plant response rating (0 to 100 scale, 0 no effect, 100 complete control)): 90%; plant injury at 125 g/ha ([9]; postemergence, visual injury rating after approximately 10 d, read-out: Corn plant response rating (0 to 100 scale, 0 no effect, 100 complete control)): 70%; pest or weed control at 125 g/ha ([10]; postemergence, visual injury rating after approximately 10 d, read-out: Foxtail, Giant plant response rating (0 to 100 scale, 0 no effect, 100 complete control)): 90%; pest or weed control at 125 g/ha ([11]; postemergence, visual injury rating after approximately 10 d, read-out: Pigweed plant response rating (0 to 100 scale, 0 no effect, 100 complete control)): 80%; pest or weed control at 125 g/ha ([12]; postemergence, visual injury rating after approximately 10 d, read-out: Ragweed plant response rating (0 to 100 scale, 0 no effect, 100 complete control)): 40%; pest or weed control at 125 g/ha ([13]; postemergence, visual injury rating after approximately 10 d, read-out: Ryegrass, Italian plant response rating (0 to 100 scale, 0 no effect, 100 complete control)): 30%; plant injury at 125 g/ha ([14]; postemergence, visual injury rating after approximately 10 d, read-out: Wheat plant response rating (0 to 100 scale, 0 no effect, 100 complete control)): 30% |
| CN1C[C@H](c2cc(F)cc(F)c2)[C@@H](C(=O)Nc2cc(O)ccc2F)C1=O [Compound 992] | 0% | 0% | 0% | 0% | 0% | 0% | 0% | 0% | 0% | 0% | 0% | 0% | 0% | 0% | 0% | 0% | 0% | 0% | 0% | – |
| COc1ccc([C@H]2CN(C)C(=O)[C@@H]2C(=O)Nc2ccccc2SC)cc1C(F)(F)F [Compound 991] | 0% | 60% | 70% | 90% | 60% | 50% | 0% | 30% | 0% | 50% | 0% | 30% | 0% | 0% | 80% | 0% | 0% | 0% | 0% | – |
| Cc1ccc([C@H]2CCNC(=O)[C@@H]2C(=O)Nc2cccc(F)c2F)cc1 [Compound 973] | 0% | 60% | 90% | 90% | 0% | 0% | 0% | 70% | 0% | 30% | 50% | 30% | 60% | 0% | 70% | 0% | 0% | 20% | 0% | – |
